pIC50: −log10 of the molar value. Values joined by “and” are separate entries in the source; they are usually repeats but may differ in a detail not shown here. Equal entries are not always repeated.
Tests used:
HDAC6 = molecular target: T1, HDAC6 (Homo sapiens, UniProt Q9UBN7); experiment: In vitro HDAC6 inhibition; assay type: biochemical; conditions: for inhibition at 10 µM: HDAC6, 10 μM; for pIC50: HDAC6, Table 1, read-out: IC50
T1 sequence (Q9UBN7 1-1215): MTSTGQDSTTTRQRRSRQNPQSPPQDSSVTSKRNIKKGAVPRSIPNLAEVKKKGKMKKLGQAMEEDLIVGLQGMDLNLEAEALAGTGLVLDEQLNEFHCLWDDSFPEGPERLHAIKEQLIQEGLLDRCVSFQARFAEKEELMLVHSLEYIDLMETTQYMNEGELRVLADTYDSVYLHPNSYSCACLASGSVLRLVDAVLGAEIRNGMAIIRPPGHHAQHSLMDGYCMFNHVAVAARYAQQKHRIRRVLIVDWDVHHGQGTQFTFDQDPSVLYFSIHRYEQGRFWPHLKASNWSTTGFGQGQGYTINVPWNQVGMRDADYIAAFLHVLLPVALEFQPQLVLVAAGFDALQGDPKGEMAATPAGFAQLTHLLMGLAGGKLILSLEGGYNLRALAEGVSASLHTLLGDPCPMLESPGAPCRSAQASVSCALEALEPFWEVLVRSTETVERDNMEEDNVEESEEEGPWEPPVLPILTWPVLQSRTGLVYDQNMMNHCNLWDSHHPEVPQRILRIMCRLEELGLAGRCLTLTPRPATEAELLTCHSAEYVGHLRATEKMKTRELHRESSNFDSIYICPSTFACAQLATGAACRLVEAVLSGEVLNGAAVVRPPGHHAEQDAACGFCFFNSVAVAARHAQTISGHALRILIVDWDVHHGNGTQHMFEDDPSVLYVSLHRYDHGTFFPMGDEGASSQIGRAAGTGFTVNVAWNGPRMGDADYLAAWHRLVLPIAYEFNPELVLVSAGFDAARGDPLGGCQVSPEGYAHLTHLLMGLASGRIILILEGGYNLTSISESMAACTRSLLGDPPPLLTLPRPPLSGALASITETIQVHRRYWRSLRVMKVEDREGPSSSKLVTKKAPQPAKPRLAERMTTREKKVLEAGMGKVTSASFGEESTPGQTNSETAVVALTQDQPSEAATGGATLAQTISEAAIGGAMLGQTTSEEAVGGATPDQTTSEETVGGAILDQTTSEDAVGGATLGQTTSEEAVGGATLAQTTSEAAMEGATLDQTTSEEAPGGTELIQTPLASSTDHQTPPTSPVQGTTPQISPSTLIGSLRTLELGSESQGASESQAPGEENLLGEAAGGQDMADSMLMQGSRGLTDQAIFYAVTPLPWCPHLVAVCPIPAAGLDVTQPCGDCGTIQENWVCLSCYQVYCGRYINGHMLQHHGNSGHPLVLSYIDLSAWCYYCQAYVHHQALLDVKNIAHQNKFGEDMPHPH

[1] = test system: glucocorticoid receptor, GR; experiment: GRE-dependent luciferase reporter p(GRE)2-50-luc in A549 cells; assay type: cell-based; conditions: A549; DEX 1 μM; CpdA 10 μM before DEX
AP-1 = conditions: published before; cited from earlier work
[2] = test system: acetylation of α-tubulin in Neuro-2a cells; experiment: Acetylation level of α-tubulin in Neuro-2a cells (Western blot); assay type: cell-based, Mouse; conditions: overnight, Neuro-2a; for normalized ratio Acetyl α-Tubulin/α-Tubulin against Tubastatin A, Average: Average of N = 1 to 4
Method: FIG. 1: Potency of inhibiting HDAC6 by compounds 7a, 7b and 13a in Neuro-2a cells. A. Cells were treated overnight with different concentrations of the HDAC6 inhibitors and blotted of the acetylation of α-tubulin.
Mouse neuroblastoma (Neuro-2a) cells were grown in a 1:1 mix of D-MEM (Dulbecco's Modified Eagle Medium) and F12 medium supplemented with glutamax (Invitrogen), 100 μg/ml streptomycin, 100 U/ml penicillin (Invitrogen), 10% fetal calf serum (Greiner Bio-one), 1% non-essential amino acids (Invitrogen) and 1.6% NaHCO3 (Invitrogen) at 37° C. and 7.5% CO2. To split the cells, cells were washed with Versene (Invitrogen) and dissociated with 0.05% Trypsine-EDTA (Invitrogen).
For sodium dodecyl sulfate-polyacrylamide gel electrophoresis (SDS-PAGE) analysis, transfected cells were collected using the EpiQuik Total Histone Extraction Kit (EpiGentek) according to manufacturer's instructions. Protein concentrations were determined using microBCA kit (Thermo Fisher Scientific Inc., Pittsburgh, Pa., USA) according to manufacturer's instructions. Before resolving the samples on a 12% SDS-PAGE gel, samples containing equal amounts of protein were supplemented with reducing sample buffer (Thermo Scientific) and boiled at 95° C. for 5 min. After electrophoresis, the proteins were transferred to a polyvinylidene difluoride (PVDF) membrane (Millipore Corp., Bedford, Mass., USA). The non-specific binding was blocked by incubation of the membrane in 5% bovine serum albumin (BSA), diluted in Tris Buffered Saline Tween (TBST, 50 mM TRIS, 150 mM NaCl, 0.1% Tween-20 (Applichem, Darmstadt, Duitsland) for 1 h at room temperature followed by incubation with primary antibodies overnight. The antibodies, diluted in TBS-T, were directed against α-tubulin (1/5000, T6199, Sigma-Aldrich), and acetylated α-tubulin (1/5000, T6793 monoclonal, Sigma-Aldrich). The secondary antibodies, coupled to alkaline phosphatase (anti-mouse or anti-rabbit, 1/5000, Sigma-Aldrich) were used. Blots were visualised by adding the ECF substrate (Enhanced Chemical Fluorescence, GE Healthcare, Uppsala, Sweden) and imaged with the ImageQuant_LAS 4000. A mild reblotting buffer (Millipore) was applied to strip the blots. ImageQuant TL version 7.0-software was used to quantify the blots.
Neuro-2a cells were treated overnight with different concentrations of the HDAC6 inhibitors and the effect on the acetylation level of α-tubulin was determined using Western blots (FIG. 1).

[3] = test system: TNF-α and IL-6 in LPS stimulated human THP-1 macrophages; conditions: reported; cited from earlier work

Row | SMILES | inhibition at 10 µM (HDAC6) [%] | pIC50 (HDAC6) | melting point [°C] | also measured
1 | O=C(NO)c1ccc(NCc2csc3cc(-c4ccccc4)ccc23)cc1 [Compound 13b, 3-[(4-hydroxycarbamoylphenyl)aminomethyl]-6-phenyl-benzothiophene] | 89.8 | 6.18 | 190.5 | 
2 | Cc1cc(C(=O)NO)ccc1NCc1csc2ccccc12 [Compound 7d, 3-[(4-hydroxycarbamoyl-2-methylphenyl)aminomethyl]-benzothiophene] | 73.4 | 5.62 | 190 | 
3 | O=C(NO)c1ccc(NCc2c[nH]c3ccccc23)cc1 [Compound 18, 3-[(4-hydroxycarbamoylphenyl)aminomethyl]indole] | 99 | 6.70 | 132.5 | 
4 | CNCC(Cl)c1ccc(OC(C)=O)cc1.Cl (stereo not drawn) [CpdA, reference compound] |  |  |  | GRE-dependent reporter gene activity, reference compounds [1]: able to lower the GRE-dependent reporter gene activity; targeting of AP-1-driven promoters (AP-1): does not target AP-1-driven promoters
5 | O=C(NO)c1ccc(N(Cc2ccccc2)Cc2csc3ccc(-c4ccccc4)cc23)cc1 [Compound 8c, 3-[N-benzyl-N-(4-hydroxycarbamoylphenyl)aminomethyl]-5-phenyl-benzothiophene] | 47.9 |  | 126 | 
6 | O=C(NO)c1ccc(NCc2csc3ccc(-c4ccccc4)cc23)cc1 [Compound 7c, 3-[(4-hydroxycarbamoylphenyl)aminomethyl]-5-phenyl-benzothiophene] | 95.1 | 6.51 | 181 | 
7 | O=C(NO)c1ccc(N(Cc2ccccc2)Cc2csc3ccccc23)cc1 [Compound 8a, 3-[N-benzyl-N-(4-hydroxycarbamoylphenyl)aminomethyl]-benzothiophene] | 89.9 | 6.33 | 178 | 
8 | O=C(NO)c1ccc(N(Cc2ccccc2)Cc2csc3ccc(Br)cc23)cc1 [Compound 8b, 5-bromo-3-[N-benzyl-N-(4-hydroxycarbamoylphenyl)aminomethyl]-benzothiophene] | 84.9 | 6.07 | 179 | 
9 | O=C(NO)c1ccc(N(Cc2ccccc2)Cc2csc3cc(-c4ccccc4)ccc23)cc1 [Compound 14b, 3-[N-benzyl-N-(4-hydroxycarbamoylphenyl)aminomethyl]-6-phenyl-benzothiophene] | 61.1 |  | 102 | 
10 | O=C(NO)c1ccc(N(Cc2ccccc2)Cc2csc3cc(Br)ccc23)cc1 [Compound 14a, 6-bromo-3-[N-benzyl-N-(4-hydroxycarbamoylphenyl)aminomethyl]-benzothiophene] | 70.7 | 5.68 | 97.5 | 
11 | CN1CCc2c(c3ccccc3n2Cc2ccc(C(=O)NO)cc2)C1 [Tub A, Tubastatin A, reference compound] |  |  |  | normalized ratio Acetyl α-Tubulin/α-Tubulin against Tubastatin A, Average ([2]; 50 nM): 34.97 and 25.12 and 23.86; normalized ratio Acetyl α-Tubulin/α-Tubulin against Tubastatin A, Average ([2]; 100 nM): 44.00 and 41.43 and 34.18; normalized ratio Acetyl α-Tubulin/α-Tubulin against Tubastatin A, Average ([2]; 500 nM): 66.24 and 73.15 and 70.36; normalized ratio Acetyl α-Tubulin/α-Tubulin against Tubastatin A, Average ([2]; 1 μM): 100.00; normalized ratio Acetyl α-Tubulin/α-Tubulin against Tubastatin A ([2]; 1 μM, single experiments N = 1 to 4, Tub A 1 μM = 100): 100.00; inhibition of TNF-α and IL-6 [3]: significantly inhibit TNF-α and IL-6
